Assay results: US10251831B2, “Extract for treating wrinkles and/or fine lines” (Avon Products, Inc., priority 2009, dated 2019)

Experiments:
paxillin mRNA = test: Stimulation of paxillin mRNA in vitro (QuantiGene multiplex branched DNA assay); format: cell-based; details: normal human dermal fibroblasts, 24 hours treatment, normalized to GAPDH
Method: Normal human dermal fibroblasts (Cascade Biologics) were cultured in 96-well tissue culture treated plates, with 200 μl DMEM in 10% serum per well, and incubated for 24 hours at 37° C. and 10% CO2. In some cases, normal human epidermal keratinocytes (Cascade Biologics) were cultured in 200 μl EpiLife medium (Cascade Biologics) per well, and incubated overnight at 37° C. and 5% CO2.
Stock solutions of candidate paxillin stimulators (test materials) were made in appropriate solvents (e.g., DMSO, water, ethanol, a 50:50 ethanol:water mixture) to give weight % as indicated in Table 1 below. Cells were treated with test material or a respective vehicle control diluted in growth medium for 24 hours in a humidified 37° C. incubator with 10% CO2. After incubation, growth medium from each plate was removed and 100 μl of lysis buffer was added to the wells and placed in 37° C. incubator with 5% CO2 for 30 minutes. At the end of incubation, the cells were collected in freezer plates and placed in a −80° C. freezer until analysis.
Changes in mRNA for paxillin in cell lysates after treatment were analysed using QuantiGene® multiplex assay (Panomics Inc. CA) that employs a branched DNA technology. This technology is a hybridization-based method of target-specific RNA quantification that amplifies a signal(s) rather than target RNA, using labelled DNA probe. Probes for Paxillin gene (ID: NM_005953) were designed and synthesized. Paxillin probes, reference probes PPIB and GAPDH, along with a set of other probes were used in this multiplex assay.
The probes used include capture extenders (CE), label extenders (LE), and blockers (BL). As described above, this arrangement provides a target sequence that is double-stranded, thereby improving hybridization efficiency. The CE, LE, and BL sequences used for identifying paxillin mRNA corresponded to SEQ ID NOS: 1, 2, and 3, respectively.
Appropriately diluted cell lysates were hybridized with the paxillin and reference probes in a hybridization plate in a Vortemp shaking incubator, for 18-22 hours at 54° C.±1° C. and 600 rpm. Once the paxillin and the reference mRNAs were captured, the unbound material was filtered using filter plates and washed three times with a wash buffer. Signal amplification was performed using two steps—first a 2.0 Pre-amplifier (Panomics Inc.) was added and incubated for 1 hour in the Vortemp shaking incubator at 54° C.±1° C. and 600 rpm. Unbound Pre-amplifier was filtered using a Filter plate and washed twice. Next the samples were exposed to 2.0 Amplifier (Panomics Inc.) and incubated, filtered, and washed as with the Pre-amplifier. Next the samples were hybridized with biotinylated labelled probe, and incubated for one hour at 54° C.±1° C. and 600 rpm. Samples were then filtered and washed as above. Finally, Streptavidin-conjugated Phycoerythrin (SAPE) working reagent was added and the mixture shaken for 30 minutes at room temperature covered in aluminium foil. Unbound SAPE was filtered and washed twice. SAPE wash buffer was added to each well with shaking for 2-5 minutes, and then readings were taken immediately using a Luminex machine.
Values for amounts of paxillin mRNA were determined along with those for the reference genes PPIB and GAPDH. Values were normalized to GAPDH to determine changes in paxillin mRNA after treatment. Percent increase in mRNA for paxillin was calculated in each case by comparing values after treatment with a candidate paxillin stimulator to values after treatment with the vehicle control.

Paxillin protein = test: Stimulation of paxillin protein in human skin biopsy (topical patch, immunohistochemistry); format: in vivo
Excerpt: Compositions comprising a paxillin stimulator were each tested on 21 subject volunteers. For each paxillin stimulator, the composition was topically applied via a patch attached to the back of a randomly selected forearm of each of 21 volunteers, and a vehicle control was similarly applied to the back of the volunteer's forearm. After 3 weeks, the human skin biopsies were taken from the treated skin of the various volunteers and subjected to immunohistochemisty preparation. […] Elevated protein level was determined for each treated subject by comparing to the vehicle control.

Structure (SMILES): Cc1ccc(C(C)C)cc1O [Carvacrol]
- % increase in Paxillin (relative to control) (paxillin mRNA; Weight % 0.0001%): 39.50%

Structure (SMILES): O=C(c1ccccc1)N1C[C@@H]2C[C@H](C1)c1ccc(-c3ccco3)c(=O)n1C2 [Compound of Formula V]
- % increase in Paxillin (relative to control) (paxillin mRNA; Weight % 0.00005%): 28.52%

Structure (SMILES): Oc1ccc(C2COc3cc(O)ccc3C2)cc1 (stereo not drawn) [Equol, 4′,7-isoflavandiol]
- % increase in Paxillin (relative to control) (paxillin mRNA; Weight % 0.0001%): 61.46%
- % increase in Paxillin (relative to control) (paxillin mRNA; Weight % 0.001%): 220.36%

Structure (SMILES): CCCCCCCC/C=C\CCCCCCCC(=O)OC/C=C(C)/C=C/C=C(C)/C=C/C1=C(C)CCCC1(C)C [Retinyl oleate]
- % increase in Paxillin (relative to control) (paxillin mRNA; Weight % 0.01%): 60.21%

Structure (SMILES): CCCCC=CC=CC=CCCCCCCCC(=O)OCC=C(C)C=CC=C(C)C=CC1=C(C)CCCC1(C)C [Retinyl punicate]
- % increase in Paxillin (relative to control) (paxillin mRNA; Weight % 0.01%): 69.68%

Structure (SMILES): Cc1coc2c1C(=O)C(=O)c1c-2ccc2c1CCCC2(C)C [Tanshinone IIA, 1,6,6-trimethyl-8,9-dihydro-7H-naphtho[1,2-g][1]benzofuran-10,11-dione]
- % increase in Paxillin (relative to control) (paxillin mRNA; Weight % 0.025%): 188.31%

Structure (SMILES): COc1ccc2cc1Oc1ccc(cc1)C[C@H]1c3cc(c(OC)cc3CCN1C)Oc1c(OC)c(OC)cc3c1[C@H](C2)N(C)CC3 [Tetrandine, 6,6′,7,12-Tetramethoxy-2,2′-dimethyl-berbaman]
- % increase in Paxillin (relative to control) (paxillin mRNA; Weight % 0.001%): 84.31%

Structure (SMILES): CC/C=C\CCCCCO [cis-6-Nonenol, Cis-6-Nonenol]
- % increase in Paxillin (relative to control) (paxillin mRNA; Weight % 0.001%): 60.84%
- % Subjects Improved (Paxillin protein; percentage of subjects with elevated paxillin protein level vs vehicle control, topical patch on forearm, 3 weeks): 71.4%
- paxillin protein in human skin biopsies (antibody stain, FIG. 1) (Paxillin protein; representative photographs, compared to treatment with a control): increased paxillin protein
- No. Showing Improvement (Paxillin protein; subjects with elevated paxillin protein level vs vehicle control, topical patch on forearm, 3 weeks, 21 subjects): 15
